target: T1, human full-length MKNK1 (Homo sapiens, UniProt Q9BUB5, T385D); test: MKNK1 kinase high ATP assay (TR-FRET); type: biochemical; details: high ATP (2 mM final), 15 min preincubation with enzyme, GST-MKNK1 (T344D)
T1 construct: purchased Carna Biosciences 02-145; host or cells: insect cells (baculovirus expression system)
Protocol: MKNK1-inhibitory activity at high ATP of compounds of the present invention after their preincubation with MKNK1 was quantified employing the TR-FRET-based MKNK1 high ATP assay as described in the following paragraphs.
A recombinant fusion protein of Glutathione-S-Transferase (GST, N-terminally) and human full-length MKNK1 (amino acids 1-424 and T344D of accession number BAA 19885.1), expressed in insect cells using baculovirus expression system and purified via glutathione sepharose affinity chromatography, was purchased from Carna Biosciences (product no 02-145) and used as enzyme. As substrate for the kinase reaction the biotinylated peptide biotin-Ahx-IKKRKLTRRKSLKG (C-terminus in amide form) was used, which can be purchased e.g. from the company Biosyntan (Berlin-Buch, Germany).
For the assay 50 nL of a 100 fold concentrated solution of the test compound in DMSO was pipetted into a black low volume 384 well microtiter plate (Greiner Bio-One, Frickenhausen, Germany), 2 μL of a solution of MKNK1 in aqueous assay buffer [50 mM HEPES pH 7.5, 5 mM MgCl2, 1.0 mM dithiothreitol, 0.005% (v/v) Nonidet-P40 (Sigma)] was added and the mixture was incubated for 15 min at 22° C. to allow pre-binding of the test compounds to the enzyme before the start of the kinase reaction. Then the kinase reaction was started by the addition of 3 μL of a solution of adenosine-tri-phosphate (ATP, 3.3 mM=> final conc. in the 5 μL assay volume is 2 mM) and substrate (0.1 μM=> final conc. in the 5 μL assay volume is 0.06 μM) in assay buffer and the resulting mixture was incubated for a reaction time of 30 min at 22° C. The concentration of MKNK1 was adjusted depending of the activity of the enzyme lot and was chosen appropriate to have the assay in the linear range, typical concentrations were in the range of 0.003 μg/mL. The reaction was stopped by the addition of 5 μL of a solution of TR-FRET detection reagents (5 nM streptavidine-XL665 [Cisbio Bioassays, Codolet, France] and 1 nM anti-ribosomal protein S6 (pSer236)-antibody from Invitrogen [#44921G] and 1 nM LANCE EU-W1024 labeled ProteinG [Perkin-Elmer, product no. AD0071]) in an aqueous EDTA-solution (100 mM EDTA, 0.1% (w/v) bovine serum albumin in 50 mM HEPES pH 7.5).
The resulting mixture was incubated for 1 h at 22° C. to allow the formation of complex between the phosphorylated biotinylated peptide and the detection reagents. Subsequently the amount of phosphorylated substrate was evaluated by measurement of the resonance energy transfer from the Eu-chelate to the streptavidine-XL. Therefore, the fluorescence emissions at 620 nm and 665 nm after excitation at 350 nm were measured in a TR-FRET reader, e.g. a Rubystar (BMG Labtechnologies, Offenburg, Germany) or a Viewlux (Perkin-Elmer). The ratio of the emissions at 665 nm and at […] was taken as the measure for the amount of phosphorylated substrate. The data were normalised (enzyme reaction without inhibitor=0% inhibition, all other assay components but no enzyme=100% inhibition).

T1 sequence (Q9BUB5 1-424 isoform Q9BUB5-2 T344D): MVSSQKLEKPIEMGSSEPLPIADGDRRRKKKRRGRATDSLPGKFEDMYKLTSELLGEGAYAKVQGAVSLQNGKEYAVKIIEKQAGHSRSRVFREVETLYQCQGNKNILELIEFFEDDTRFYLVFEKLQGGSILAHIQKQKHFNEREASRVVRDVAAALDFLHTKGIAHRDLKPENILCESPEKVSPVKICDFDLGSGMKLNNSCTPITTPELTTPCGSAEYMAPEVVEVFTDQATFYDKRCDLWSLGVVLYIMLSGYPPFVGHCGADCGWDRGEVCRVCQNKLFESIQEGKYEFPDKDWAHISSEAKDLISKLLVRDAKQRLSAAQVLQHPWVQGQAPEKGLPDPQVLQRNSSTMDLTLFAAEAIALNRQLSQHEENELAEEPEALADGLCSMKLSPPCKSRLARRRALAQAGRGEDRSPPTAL

SMILES | IC50 [nM]
COc1nc2[nH]ncc2cc1Nc1ncnc2[nH]c(C(=O)N3CCC(N(C)C)CC3)c(Br)c12 [Example 64, {5-Bromo-4-[(6-methoxy-1H-pyrazolo[3,4-b]pyridin-5-yl)amino]-7H-pyrrolo[2,3-d]pyrimidin-6-yl}[4-(dimethylamino)piperidin-1-yl]methanone] | 4.2
CC(C)N(C)C(=O)[C@H]1CCc2c(sc3ncnc(Nc4cnc5[nH]ncc5c4)c23)C1 [Example 95, (7S)—N-Methyl-N-(propan-2-yl)-4-(1H-pyrazolo[3,4-b]pyridin-5-ylamino)-5,6,7,8-tetrahydro[1]benzothieno[2,3-d]pyrimidine-7-carboxamide] | 18
CN(C)C(=O)c1nc2c(Nc3cnc4[nH]ncc4c3)ncnc2s1 [Example 123, N,N-Dimethyl-7-(1H-pyrazolo[3,4-b]pyridin-5-ylamino)[1,3]thiazolo[5,4-d]pyrimidine-2-carboxamide] | 230
CN(C)CCNC(=O)c1cc2c(Nc3cc4cn[nH]c4cn3)ncnc2[nH]1 [Example 22, N-[2-(Dimethylamino)ethyl]-4-(1H-pyrazolo[3,4-c]pyridin-5-ylamino)-7H-pyrrolo[2,3-d]pyrimidine-6-carboxamide] | 5.4
CN1CCN(C(=O)[C@H]2CCc3c(sc4ncnc(Nc5cc6cn[nH]c6nc5O)c34)C2)CC1 [Example 116] | 2.1
C[C@@H]1COCCN1C(=O)c1[nH]c2ncnc(Nc3cc4cn[nH]c4cn3)c2c1Br [Example 70, [5-Bromo-4-(1H-pyrazolo[3,4-c]pyridin-5-ylamino)-7H-pyrrolo[2,3-d]pyrimidin-6-yl][(3R)-3-methylmorpholin-4-yl]methanone] | 40.7
CCCN(C)C(=O)[C@H]1CCc2c(sc3ncnc(Nc4cc5cn[nH]c5nc4OC)c23)C1 [Example 38, (7S)-4-[(6-Methoxy-1H-pyrazolo[3,4-b]pyridin-5-yl)amino]-N-methyl-N-propyl-5,6,7,8-tetrahydro[1]benzothieno[2,3-d]pyrimidine-7-carboxamide] | 1.4
COCCN(CCOC)C(=O)[C@H]1CCc2c(sc3ncnc(Nc4cc5cn[nH]c5cn4)c23)C1 [Example 56, (7S)—N, N-Bis(2-methoxyethyl)-4-(1H-pyrazolo[3,4-c]pyridin-5-ylamino)-5,6,7,8-tetrahydro[1]benzothieno[2,3-d]pyrimidine-7-carboxamide] | 8.1
C[C@H]1COCCN1C(=O)c1[nH]c2ncnc(Nc3cnc4[nH]ncc4c3)c2c1Br [Example 75, [5-Bromo-4-(1H-pyrazolo[3,4-b]pyridin-5-ylamino)-7H-pyrrolo[2,3-d]pyrimidin-6-yl][(3S)-3-methymorpholin-4-yl]methanone] | 61
O=C(O)c1[nH]c2ncnc(Nc3cc4cn[nH]c4cn3)c2c1Br [Example 14, 5-Bromo-4-(1H-pyrazolo[3,4-c]pyridin-5-ylamino)-7H-pyrrolo[2,3-d]pyrimidine-6-carboxylic acid] | 2.8
CN(C)CCNC(=O)c1[nH]c2ncnc(Nc3cc4cn[nH]c4cn3)c2c1Br [Example 120, 5-Bromo-N-[2-(dimethylamino)ethyl]-4-(1H-pyrazolo[3,4-c]pyridin-5-ylamino)-7H-pyrrolo[2,3-d]pyrimidine-6-carboxamide] | 14.5
CN(C)CCCN(C)C(=O)c1[nH]c2ncnc(Nc3cc4cn[nH]c4cn3)c2c1Br [Example 119, 5-Bromo-N-[3-(dimethylamino)propyl]-N-methyl-4-(1H-pyrazolo[3,4-c]pyridin-5-ylamino)-7H-pyrrolo[2,3-d]pyrimidine-6-carboxamide] | 67.7
O=C([C@H]1CCc2c(sc3ncnc(Nc4cc5cn[nH]c5nc4O)c23)C1)N1C[C@@H]2C[C@H]1CO2 [Example 115] | 6.9
O=C(c1[nH]c2ncnc(Nc3cc4cn[nH]c4nc3O)c2c1Br)N1CCOCC1 [Example 68] | 10.1
O=C(c1[nH]c2ncnc(Nc3cc4cn[nH]c4cn3)c2c1Br)N1CCOCC1 [Example 71, [5-Bromo-4-(1H-pyrazolo[3,4-c]pyridin-5-ylamino)-7H-pyrrolo[2,3-d]pyrimidin-6-yl](morpholin-4-yl)methanone] | 43.2
CC(C)NC(=O)C1CCc2c(sc3ncnc(Nc4cnc5[nH]ncc5c4)c23)C1 (racemic) [Example 23, (RS)—N-(Propan-2-yl)-4-(1H-pyrazolo[3,4-b]pyridin-5-ylamino)-5,6,7,8-tetrahydro[1]benzothieno[2,3-d]pyrimidine-7-carboxamide] | 10.4
CN(C)C1CCN(C(=O)c2[nH]c3ncnc(Nc4cc5cn[nH]c5nc4O)c3c2Br)CC1 [Example 65] | 2.8
COc1nc2[nH]ncc2cc1Nc1ncnc2sc(C(=O)N(C)CCC(=O)N(C)C)nc12 [Example 138, N-[3-(Dimethylamino)-3-oxopropyl]-7-[(6-methoxy-1H-pyrazolo[3,4-b]pyridin-5-yl)amino]-N-methyl[1,3]thiazolo[5,4-d]pyrimidine-2-carboxamide] | 114
CN(C)CCCNC(=O)c1[nH]c2ncnc(Nc3cc4cn[nH]c4cn3)c2c1Br [Example 118, 5-Bromo-N-[3-(dimethylamino)propyl]-4-(1H-pyrazolo[3,4-c]pyridin-5-ylamino)-7H-pyrrolo[2,3-d]pyrimidine-6-carboxamide] | 8.1
CCCN(CCOC)C(=O)[C@H]1CCc2c(sc3ncnc(Nc4cc5cn[nH]c5nc4OC)c23)C1 [Example 49, (7S)—N-(2-Methoxyethyl)-4-[(6-methoxy-1H-pyrazolo[3,4-b]pyridin-5-yl)amino]-N-propyl-5,6,7,8-tetrahydro[1]benzothieno[2,3-d]pyrimidine-7-carboxamide] | 0.3
C[C@@H]1COCCN1C(=O)c1[nH]c2ncnc(Nc3cnc4[nH]ncc4c3)c2c1Br [Example 73, [5-Bromo-4-(1H-pyrazolo[3,4-b]pyridin-5-ylamino)-7H-pyrrolo[2,3-d]pyrimidin-6-yl][(3R)-3-methylmorpholin-4-yl]methanone] | 144
CCN(C)C(=O)[C@H]1CCc2c(sc3ncnc(Nc4cc5cn[nH]c5nc4O)c23)C1 [Example 112, (7S)—N-Ethyl-4-[(6-hydroxy-1H-pyrazolo[3,4-b]pyridin-5-yl)amino]-N-methyl-5,6,7,8-tetrahydro[1]benzothieno[2,3-d]pyrimidine-7-carboxamide] | 4.6
CCOC(=O)c1cc2c(Nc3cc4cn[nH]c4cn3)ncnc2[nH]1 [Example 10, Ethyl 4-(1H-pyrazolo[3,4-c]pyridin-5-ylamino)-7H-pyrrolo[2,3-d]pyrimidine-6-carboxylate] | 6.6
COc1nc2[nH]ncc2cc1Nc1ncnc2sc3c(c12)CC[C@H](C(=O)N1CC(C#N)C1)C3 [Example 108, 1-({(7S)-4-[(6-Methoxy-1H-pyrazolo[3,4-b]pyridin-5-yl)amino]-5,6,7,8-tetrahydro[1]benzothieno[2,3-d]pyrimidin-7-yl}carbonyl)azetidine-3-carbonitrile] | 0.7
CN(C)C1CCN(C(=O)[C@H]2CCc3c(sc4ncnc(Nc5cnc6[nH]ncc6c5)c34)C2)CC1 [Example 107, [4-(Dimethylamino)piperidin-1-yl][(7S)-4-(1H-pyrazolo[3,4-b]pyridin-5-ylamino)-5,6,7,8-tetrahydro[1]benzothieno[2,3-d]pyrimidin-7-yl]methanone] | 13.3
CN(C)CCNC(=O)c1[nH]c2ncnc(Nc3cnc4[nH]ncc4c3)c2c1Br [Example 124, 5-Bromo-N-[2-(dimethylamino)ethyl]-4-(1H-pyrazolo[3,4-b]pyridin-5-ylamino)-7H-pyrrolo[2,3-d]pyrimidine-6-carboxamide] | 65.9
CN(CCN(C)C(=O)c1cc2c(Nc3cc4cn[nH]c4cn3)ncnc2[nH]1)Cc1ccccc1 [Example 78, N-{2-[Benzyl(methyl)amino]ethyl}-N-methyl-4-(1H-pyrazolo[3,4-c]pyridin-5-ylamino)-7H-pyrrolo[2,3-d]pyrimidine-6-carboxamide] | 7.4
CN(C)C1CCN(C(=O)c2[nH]c3ncnc(Nc4cnc5[nH]ncc5c4)c3c2Br)CC1 [Example 127, [5-Bromo-4-(1H-pyrazolo[3,4-b]pyridin-5-ylamino)-7H-pyrrolo[2,3-d]pyrimidin-6-yl][4-(dimethylamino)piperidin-1-yl]methanone] | 76.8
